The text below walks through data of patent publication US20170014360A1, “METHODS OF TREATING CANCER USING RAD51 SMALL MOLECULE STIMULATORS” (The University of Chicago, priority 2014, published 2017).

In data set [1] the test system is normal primary human fibroblasts (MRC-5). Nature of the data set: Immunofluorescence microscopy to detect RAD51 and RPA foci in MRC-5 cells. The data set is classed as cell-based. On the procedure:
(§1) FIGS. 6A-6B. […] FIG. 6A: Cells were grown on cover slips, incubated for 6 hours in media containing 60 μM RS-1. In the 8 Gy radiation control condition, cells were irradiated 6 hours before harvest. Cells were subsequently indirectly immunostained. […] FIG. 6B: Fifty randomly selected nuclei per treatment group were examined and discrete foci were quantified.
(§2) Some cancer cells that strongly overexpress RAD51 are known to develop spontaneous RAD51 nuclear complexes (Raderschall, et al., 2002). […] PC3 prostate cancer cells and normal primary human fibroblasts (MRC-5) were treated with RS-1 and examined by immunofluorescence microscopy. To determine whether RAD51-staining structures represented sites of DNA repair vs. non-damage-associated sites, nuclei were counterstained for RPA, which forms punctuate sub-nuclear foci specifically in response to DNA damage at sites that colocalize with damage-induced RAD51 foci (Golub, et al., 1998).
(§3) Cells were grown on coverslips and treated with RS-1 or radiation as indicated. They were subsequently fixed with 3% paraformaldahyde/3.4% sucrose, and permeabilized with a standard buffer (20 mM HEPES pH 7.4, 0.5% TritonX-100, 50 mM NaCl, 3 mM MgCl2, 300 mM sucrose). […] Images were recorded at a single representative focal plane using a CCD camera. For each experimental condition, 50 randomly selected nuclei were quantified using NIH Image software.

Data set [2] deals with T1, RAD51 (Homo sapiens, UniProt Q06609).
T1 sequence (Q06609 1-339): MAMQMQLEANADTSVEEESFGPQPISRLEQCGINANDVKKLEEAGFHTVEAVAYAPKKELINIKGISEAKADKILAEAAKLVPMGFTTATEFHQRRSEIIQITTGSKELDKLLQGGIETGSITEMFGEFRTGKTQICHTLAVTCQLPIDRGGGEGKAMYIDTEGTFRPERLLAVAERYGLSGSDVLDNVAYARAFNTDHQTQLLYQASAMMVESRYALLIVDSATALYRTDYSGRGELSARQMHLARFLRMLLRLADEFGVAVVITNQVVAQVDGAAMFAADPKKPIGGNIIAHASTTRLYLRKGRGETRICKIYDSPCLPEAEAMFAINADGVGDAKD
Conditions: cited from earlier work.

The subject of data set [3] is PC3 prostate cancer cells. Put plainly: Immunofluorescence microscopy to detect RAD51 and RPA foci in PC3 cells. The data set is classed as cell-based, human. On the procedure: as §1, §2, §3
The subject of a further data set is PC3 tumors. Put plainly: PC3 xenograft tumor model in athymic nude mice. Here is the method:
FIG. 7. […] PC3 tumors were induced in the hind limbs of athymic nude mice. Mice were then randomized into two treatment groups. Starting on day 0, mice then received 5 daily intra-peritoneal injections with either RS-1 (110 mg/kg) or vehicle alone control. Median tumor volume is plotted, normalized to the starting tumor volume on day 0.
An in-vivo tumor model was used to further test the concept of RAD51 stimulation as a cancer treatment. Subcutaneous xenograft PC3 tumors were induced in the hind limbs of athymic nude mice, and the mice were subsequently treated with daily intra-peritoneal injections of RS-1 for five consecutive days. The daily dose administered to the mice was designed to yield an idealized concentration of 300 μM within the aqueous compartment of a mouse, based on an assumption of homogenous distribution across a 21 gm animal that is composed of 70% water.
Xenograft tumors were induced in the hind limbs of athymic nude mice by subcutaneous injection of 1×10^6 PC3 cells, and tumors were allowed to grow to an average volume of about 50 mm^3. Mice were then were randomized into treatment groups, each consisting of 7 mice. […] Tumor measurements were taken 3 times per week with a caliper and expressed as tumor volume, which was approximated from the product of width×length×height×0.5.

In data set [4] the target is T1, RAD51. The following applies: cited from earlier work. This is another data set of the same source.
The next data set concerns PC3 cells. Put plainly: Cell survival assay in PC3 cells (with or without siRNA knockdown). The data set is classed as cell-based, human.
The subject of another data set is HT1080 cells. Put plainly: Cell survival assay in HT1080 cells with doxycycline-repressible RAD51 transgene. The following applies: HT1080, RAD51 overexpression by doxycycline removal; 24 hours RS-1, 6 days drug-free. The data set is classed as cell-based, human.
The target in data set [5] is T2, purified human RAD51 protein (Homo sapiens, UniProt Q06609).
T2 sequence (Q06609 1-339): T1 sequence (Q06609 1-339)
Nature of the data set: Measurement of RAD51 binding to DNA by fluorescence polarization. The following applies: 75 nM RAD51, various concentrations of RS-1, 100 nM DNA substrate.
Method: Various concentrations of RS-1 were incubated with purified hRAD51 protein and a fluorescently tagged DNA substrate, consisting of either a ssDNA oligonucleotide (DHD162-CD-CF) or a dsDNA double hairpin (DHD162). Binding of RAD51 to DNA was measured as a function of fluorescence polarization of the tag, as described in the methods section.
Experiments were performed as previously described with some modifications (Budke, et al., 2012). Briefly, 75 nM purified human RAD51 protein was incubated with various concentrations of RS-1 in FP reaction buffer at 37° C. for 40 minutes. FP reaction buffer consisted of 20 mM Hepes pH 7.5, 10 mM MgCl2, 0.25 μM BSA, 2% glycerol, 30 mM NaCl, 4% DMSO, 0.1 mM tris(2-carboxyethyl)phosphine (TCEP), and 2 mM ATP. Fluorescently tagged DNA substrate was then added to a final concentration of 100 nM (nucleotide concentration for ssDNA or base pair concentration for dsDNA) and incubated at 37° C. for another 40 minutes. DNA substrates consisted of either an Alexa Fluor 488-labeled oligo-dT 45-mer, a fluorescein-labeled ssDNA oligonucleotide (DHD162-CD-CF), or a fluorescein-labeled dsDNA double hairpin (DHD162) which were previously described (Budke, et al., 2013). Fluorescence polarization measurements were obtained as previously described (Budke, et al., 2012). […]

[6] abbreviates: 110 mg/kg intra-peritoneal, 5 daily injections.

Method for HT1080 cells: HT1080 cells carrying a doxycycline-repressible RAD51 transgene were pre-treated with varying levels of doxycycline for 24 hours. […] In lower panel, cells were subsequently incubated for 24 hours in media containing varying concentrations of RS-1. Cells were then allowed to grow in drug-free media for an additional 6 days, and indicated doxycycline concentrations were maintained throughout the entire experiment. Average survival for each condition is normalized to the 0 μM RS-1 control of that condition.
Cells were plated into 96-well tissue culture plates at a density of 300 cells per well in the presence or absence of RS-1 for 24 hours at 37° C., 5% CO2. RS-1 was then removed, and cultures were allowed to grow for approximately one week to a 50-70% confluence. Average survival from six replicates was measured using CellGlo reagent (Promega), and error bars represent the standard error.
To confirm that RS-1 toxicity is directly related to RAD51 and translocases protein levels, these proteins were experimentally manipulated in cells. First, RAD51 was overexpressed in human fibrosarcoma HT1080 cells carrying a doxycycline-repressible RAD51 transgene.

Consider `O=C(Nc1ccc(Br)cc1)c1ccc(Br)c(S(=O)(=O)NCc2ccccc2)c1` [RS-1, 3-Benzylsulfamoyl-4-bromo-N-(4-bromo-phenyl)-benzamide], for which the “nuclei with >10 RAD51 foci/nucleus” value in data set [1] (MRC-5, 60 μM RS-1, 6 hours) is reported as “no MRCS nuclei exhibited >10 RAD51 foci/nucleus”; in data set [3] (PC3, 60 μM RS-1, 6 hours, no DNA damage), 43%. Also, the “cells with >10 RPA foci/nucleus” value was “Neither cell type exhibited >10 RPA foci/nucleus in any cells” in data set [1] (MRC-5, after RS-1 treatment) and “Neither cell type exhibited >10 RPA foci/nucleus in any cells” in data set [3] (PC3, after RS-1 treatment). For the same compound, the “DNA strand invasion activity of RAD51” value at RAD51 [2] is recorded as “capable of stimulating DNA strand invasion activity of RAD51”. For the same compound, in the data set with PC3 tumors (setting [6]), the “anti-tumor response relative to vehicle-alone control” value is given as “significant anti-tumor responses”. Besides, the toxic deaths result in the data set on PC3 tumors (setting [6]) is recorded as “no toxic deaths observed”. The “delay in tumor regrowth relative to vehicle-alone control” value in the data set with PC3 tumors (110 mg/kg intra-peritoneal, 5 daily injections, remaining tumors) was greater than 2 week. Also, the “tumors that completely disappeared after treatment and never regrew” value with PC3 tumors (110 mg/kg intra-peritoneal, 5 daily injections, two month observation, 3 of 7) came to 43%. In addition, the transient weight loss result in the data set on PC3 tumors (during the treatment week, regained post-treatment) is “about 10%”. Further, at RAD51 [4] (buffers containing high salt concentration), the “protection of RAD51 filaments from high salt” value is “protects these filaments from buffers containing high salt concentration”. The “RAD51 filament formation (further study)” value at RAD51 [4] is “enhances RAD51 filament formation”. The “effect of RAD51 depletion on RS-1 induced toxicity” value with PC3 cells (PC3, RAD51 siRNA 48 hours, then 24 hours RS-1) is on record as “significant protection from RS-1 induced toxicity”. In addition, the LD90 result in the data set with PC3 cells (PC3, relative to panel of cell lines) is recorded as “low LD90”. Further, in the data set with PC3 cells (PC3, siRNA 48 hours, then 24 hours RS-1), the “effect of RAD54B or RAD54L knockdown on RS-1 toxicity” value is “significantly sensitized PC3 cells to RS-1 toxicity”. Also, in the data set on HT1080 cells, the “sensitivity to RS-1 of cells with the highest RAD51 expression levels” value is “significantly more sensitive to RS-1”. Moreover, in data set [5], the “binding of RAD51 to ssDNA and dsDNA” value is “stimulates the binding of RAD51 to both ssDNA and dsDNA”.
